The NIST ThermoML archive (doi:10.1021/je900210h)
Numbers after ± are expanded uncertainties.

Details: Fluid (supercritical or subcritical phases), Coaxial cylinder method

Compound `FCC(F)(F)F` [1,1,1,2-tetrafluoroethane] has a thermal conductivity (385.18 K, 4959 kPa) of 0.0526 ± 0.0021 W/m/K, a thermal conductivity (385.18 K, 4978 kPa) of 0.0528 ± 0.0022 W/m/K and a thermal conductivity (385.18 K, 5000 kPa) of 0.053 ± 0.002 W/m/K. It also gave a thermal conductivity (385.18 K, 5022 kPa) of 0.053 ± 0.002 W/m/K, a thermal conductivity (385.18 K, 5042 kPa) of 0.053 ± 0.002 W/m/K and a thermal conductivity (385.18 K, 5058 kPa) of 0.053 ± 0.002 W/m/K. For the same compound, the thermal conductivity (385.18 K, 5080 kPa) was 0.053 ± 0.002 W/m/K, the thermal conductivity (385.18 K, 5100 kPa) was 0.053 ± 0.002 W/m/K and the thermal conductivity (385.18 K, 5120 kPa) was 0.053 ± 0.002 W/m/K. For the same compound, the thermal conductivity (385.18 K, 5151 kPa) was 0.0528 ± 0.0022 W/m/K, the thermal conductivity (385.18 K, 5179 kPa) was 0.0526 ± 0.0021 W/m/K and the thermal conductivity (385.18 K, 5224 kPa) was 0.0524 ± 0.0021 W/m/K. The thermal conductivity (385.18 K, 5254 kPa) was 0.0522 ± 0.0021 W/m/K, the thermal conductivity (385.19 K, 4900 kPa) was 0.0512 ± 0.0021 W/m/K and the thermal conductivity (385.19 K, 4918 kPa) was 0.0518 ± 0.0021 W/m/K. The thermal conductivity (385.19 K, 5296 kPa) was 0.0518 ± 0.0021 W/m/K, the thermal conductivity (385.19 K, 5322 kPa) was 0.0518 ± 0.0021 W/m/K and the thermal conductivity (385.19 K, 5358 kPa) was 0.0516 ± 0.0021 W/m/K. The thermal conductivity (385.19 K, 5402 kPa) was 0.0516 ± 0.0021 W/m/K, the thermal conductivity (385.19 K, 5454 kPa) was 0.0514 ± 0.0021 W/m/K and the thermal conductivity (385.19 K, 5513 kPa) was 0.0512 ± 0.0021 W/m/K. The thermal conductivity (385.2 K, 4880 kPa) was 0.0505 ± 0.0021 W/m/K, the thermal conductivity (385.21 K, 4840 kPa) was 0.0488 ± 0.002 W/m/K and the thermal conductivity (385.22 K, 4820 kPa) was 0.048 ± 0.002 W/m/K. For the same compound, the thermal conductivity (385.23 K, 4800 kPa) was 0.0471 ± 0.002 W/m/K, the thermal conductivity (385.25 K, 4760 kPa) was 0.0458 ± 0.002 W/m/K and the thermal conductivity (385.26 K, 4730 kPa) was 0.0446 ± 0.0019 W/m/K. It also gave a thermal conductivity (385.28 K, 4700 kPa) of 0.0431 ± 0.0019 W/m/K, a thermal conductivity (385.29 K, 4670 kPa) of 0.0421 ± 0.002 W/m/K and a thermal conductivity (385.3 K, 4640 kPa) of 0.0411 ± 0.0019 W/m/K. For the same compound, the thermal conductivity (385.31 K, 4610 kPa) was 0.0401 ± 0.0018 W/m/K, the thermal conductivity (385.33 K, 4580 kPa) was 0.0393 ± 0.0018 W/m/K and the thermal conductivity (385.34 K, 4540 kPa) was 0.0382 ± 0.0017 W/m/K. For the same compound, the thermal conductivity (385.36 K, 4500 kPa) was 0.0371 ± 0.0017 W/m/K, the thermal conductivity (385.37 K, 4460 kPa) was 0.0363 ± 0.0017 W/m/K and the thermal conductivity (385.39 K, 4410 kPa) was 0.0352 ± 0.0016 W/m/K. It also gave a thermal conductivity (385.41 K, 4360 kPa) of 0.0343 ± 0.0016 W/m/K, a thermal conductivity (385.42 K, 4310 kPa) of 0.0335 ± 0.0016 W/m/K and a thermal conductivity (385.57 K, 4260 kPa) of 0.0328 ± 0.0015 W/m/K. The thermal conductivity (385.59 K, 4200 kPa) was 0.032 ± 0.002 W/m/K, the thermal conductivity (385.61 K, 4120 kPa) was 0.0311 ± 0.0015 W/m/K and the thermal conductivity (385.72 K, 5700 kPa) was 0.0514 ± 0.0021 W/m/K. The thermal conductivity (385.72 K, 5714 kPa) was 0.0516 ± 0.0021 W/m/K, the thermal conductivity (385.75 K, 4060 kPa) was 0.0305 ± 0.0015 W/m/K and the thermal conductivity (385.78 K, 3920 kPa) was 0.0293 ± 0.0014 W/m/K. The thermal conductivity (387.19 K, 7800 kPa) was 0.0564 ± 0.0023 W/m/K, the thermal conductivity (387.2 K, 7501 kPa) was 0.0559 ± 0.0022 W/m/K and the thermal conductivity (387.22 K, 7002 kPa) was 0.0545 ± 0.0022 W/m/K. The thermal conductivity (387.23 K, 6650 kPa) was 0.0536 ± 0.0022 W/m/K, the thermal conductivity (387.25 K, 6371 kPa) was 0.0527 ± 0.0021 W/m/K and the thermal conductivity (387.27 K, 9502 kPa) was 0.0597 ± 0.0024 W/m/K. The thermal conductivity (387.28 K, 18006 kPa) was 0.0691 ± 0.0027 W/m/K, the thermal conductivity (387.29 K, 17000 kPa) was 0.0682 ± 0.0026 W/m/K and the thermal conductivity (387.3 K, 8468 kPa) was 0.0578 ± 0.0023 W/m/K. The thermal conductivity (387.3 K, 16290 kPa) was 0.0676 ± 0.0026 W/m/K, the thermal conductivity (387.32 K, 14910 kPa) was 0.0663 ± 0.0026 W/m/K and the thermal conductivity (387.33 K, 13500 kPa) was 0.0648 ± 0.0025 W/m/K. The thermal conductivity (387.33 K, 14002 kPa) was 0.0653 ± 0.0025 W/m/K, the thermal conductivity (387.34 K, 13000 kPa) was 0.0642 ± 0.0025 W/m/K and the thermal conductivity (387.37 K, 11008 kPa) was 0.0619 ± 0.0024 W/m/K. It also gave a thermal conductivity (387.37 K, 11503 kPa) of 0.0625 ± 0.0025 W/m/K, a thermal conductivity (392.65 K, 180 kPa) of 0.02136 ± 0.0012 W/m/K and a thermal conductivity (394.44 K, 6457 kPa) of 0.0507 ± 0.0021 W/m/K. It also gave a thermal conductivity (394.44 K, 6523 kPa) of 0.0509 ± 0.0021 W/m/K, a thermal conductivity (394.44 K, 6557 kPa) of 0.0511 ± 0.0021 W/m/K and a thermal conductivity (394.45 K, 6140 kPa) of 0.0494 ± 0.002 W/m/K. It also gave a thermal conductivity (394.45 K, 6200 kPa) of 0.0496 ± 0.0021 W/m/K, a thermal conductivity (394.45 K, 6260 kPa) of 0.0498 ± 0.0021 W/m/K and a thermal conductivity (394.45 K, 6300 kPa) of 0.05 ± 0.002 W/m/K. It also gave a thermal conductivity (394.45 K, 6399 kPa) of 0.0503 ± 0.0021 W/m/K, a thermal conductivity (394.46 K, 5940 kPa) of 0.0483 ± 0.002 W/m/K and a thermal conductivity (394.46 K, 5980 kPa) of 0.0487 ± 0.002 W/m/K. It also gave a thermal conductivity (394.46 K, 6044 kPa) of 0.0491 ± 0.002 W/m/K, a thermal conductivity (394.46 K, 6100 kPa) of 0.0492 ± 0.002 W/m/K and a thermal conductivity (394.47 K, 5760 kPa) of 0.0472 ± 0.002 W/m/K. The thermal conductivity (394.47 K, 5767 kPa) was 0.0472 ± 0.002 W/m/K, the thermal conductivity (394.47 K, 5800 kPa) was 0.0476 ± 0.002 W/m/K and the thermal conductivity (394.47 K, 5811 kPa) was 0.0476 ± 0.002 W/m/K. The thermal conductivity (394.47 K, 5851 kPa) was 0.048 ± 0.002 W/m/K, the thermal conductivity (394.47 K, 5886 kPa) was 0.048 ± 0.002 W/m/K and the thermal conductivity (394.49 K, 5583 kPa) was 0.0453 ± 0.0019 W/m/K. The thermal conductivity (394.49 K, 5626 kPa) was 0.0457 ± 0.0019 W/m/K, the thermal conductivity (394.49 K, 5641 kPa) was 0.046 ± 0.002 W/m/K and the thermal conductivity (394.5 K, 5527 kPa) was 0.0444 ± 0.0019 W/m/K. The thermal conductivity (394.52 K, 5428 kPa) was 0.043 ± 0.002 W/m/K, the thermal conductivity (394.53 K, 5366 kPa) was 0.0419 ± 0.0018 W/m/K and the thermal conductivity (394.54 K, 5314 kPa) was 0.0411 ± 0.0018 W/m/K. The thermal conductivity (394.55 K, 5300 kPa) was 0.0409 ± 0.0018 W/m/K, the thermal conductivity (394.56 K, 5246 kPa) was 0.04 ± 0.002 W/m/K and the thermal conductivity (394.56 K, 6908 kPa) was 0.0519 ± 0.0021 W/m/K. It also gave a thermal conductivity (394.56 K, 7067 kPa) of 0.0523 ± 0.0021 W/m/K.
